Columns and labels:
Jurkat T-cells = test: Jurkat:GAS-SEAP screening assay for T-cell activity; assay type: cell-based; settings: 100 Unit/ml, typically observed
Description: The following protocol is used to assess T-cell activity of CLC by determining whether CLC supernatant proliferates and/or differentiates T-cells. T-cell activity is assessed using the GAS/SEAP/Neo construct produced in Example 6. Thus, factors that increase SEAP activity indicate the ability to activate the Jaks-STATs signal transduction pathway. The T-cell used in this assay is Jurkat T-cells (ATCC Accession No. TIB-152), although Molt-3 cells (ATCC Accession No. CRL-1552) and Molt-4 cells (ATCC Accession No. CRL-1582) cells can also be used.
Jurkat T-cells are lymphoblastic CD4+ Th1 helper cells. In order to generate stable cell lines, approximately 2 million Jurkat cells are transfected with the GAS-SEAP/neo vector using DMRIE-C (Life Technologies; transfection procedure described below). The transfected cells are seeded to a density of approximately 20,000 cells per well and transfectants resistant to 1 mg/ml geneticin selected. Resistant colonies are expanded and then tested for their response to increasing concentrations of interferon gamma.
Specifically, the following protocol will yield sufficient cells for 75 wells containing 200 μl of cells. Thus, it is either scaled up, or performed in multiple to generate sufficient cells for multiple 96 well plates. Jurkat cells are maintained in RPMI+10% serum with 1% Pen-Strep. […]

U937 cells = test: GAS-SEAP/U937 assay identifying myeloid activity; assay type: cell-based; settings: 100 Unit/ml; U937 GAS-SEAP; typically observed
Description: The following protocol is used to assess myeloid activity of CLC by determining whether CLC proliferates and/or differentiates myeloid cells. Myeloid cell activity is assessed using the GAS/SEAP/Neo construct produced in Example 6. Thus, factors that increase SEAP activity indicate the ability to activate the Jaks-STATS signal transduction pathway. The myeloid cell used in this assay is U937, a pre-monocyte cell line, although TF-1, HL60, or KG1 can be used.
To transiently transfect U937 cells with the GAS/SEAP/Neo construct produced in Example 6, a DEAE-Dextran method (Kharbanda, et. al., Cell Growth & Differentiation 5:259-265 (1994)) is used. First, harvest 2×10^7 U937 cells and wash with PBS. The U937 cells are usually grown in RPMI 1640 medium containing 10% heat-inactivated fetal bovine serum (FBS) supplemented with 100 units/ml penicillin and […] streptomycin.
Next, suspend the cells in 1 ml of 20 mM Tris-HCl (pH 7.4) buffer containing 0.5 mg/ml DEAE-Dextran, 8 ug GAS-SEAP2 plasmid DNA, 140 mM NaCl, 5 mM KCl, 375 μM Na2HPO47H2O, […], and 675 μM CaCl2. Incubate at 37° C. for 45 min.
Wash the cells with RPMI 1640 medium containing 10% FBS and then resuspend in 10 ml complete medium and incubate at 37° C. for 36 hr.
The GAS-SEAP/U937 stable cells are obtained by growing the cells in 400 μg/ml G418. […]

STATS = settings: numbers of the STATs activated; adapted from Schidler and Darnell review; cited from earlier work
GAS or ISRE = settings: element bound; adapted from Schidler and Darnell review; cited from earlier work
M1 cells [1] = test: Protein tyrosine phosphorylation after anti-gp130 immunoprecipitation; assay type: cell-based; settings: M1 cells treated with CLC or LIF supernatant; band of apparent molecular mass 32 kDa
Description: Because of the wide range of known factors capable of stimulating tyrosine kinase activity, identifying whether CLC or a molecule induced by CLC is capable of activating tyrosine kinase signal transduction pathways is of interest. Therefore, the following protocol is designed to identify such molecules capable of activating the tyrosine kinase signal transduction pathways.
Seed NIH-3T3 cells in 15 cm^2 cell culture plates in DMEM supplemented with Pen/Strep, 10% FBS, 25 mM Hepes. […] At the point the experiment begins, the cells should be 80-90% confluent. Collect M1 cells in 50 ml tube and centrifuge 1000 rpm for 5 min. Resuspend the cell pellet in “quiescing medium” which is RPMI supplemented with Pen/Strep, glutamine. (It is important to note that quiescing medium contains neither serum nor growth factors.) Centrifuge again at 1000 rpm for 5 min to wash the cells. Again, resuspend the cells in quiescing medium. Incubate the M1 cells in quiescing medium for 16 hours at 37° C.
Pre-warm quiescing medium (for Ml cells) and a metal tube rack to 37° C. Pre-cool quiescing media (for NIH-3T3 cells) and sterile Eppendorf tubes containing 0.5 ml of sample. […] Resuspend M1 cells to 5.0×10^7 cells per 0.5 ml quiescing media. Place all tubes on per warmed metal rack and leave at 37° C. until ready to begin. Add samples to these pre-aliquoted tubes. […]

M1 cells [2] = test: M1 cell proliferation by BrdU incorporation; assay type: cell-based; settings: dose of 100 μL, 72 hours
Description: The effect of CLC on cellular proliferation can be assayed in M1 cells by BrdU incorporation. 1×10^4 cells/100 μL are dispensed into 96-well cell culture plates and labeled with 10 μL BrdU. CLC is added to the cells at several doses (0, 5, 25, and 100 μL) and LIF is added to the cells as a positive control at a dose of 100 μL. The cells are allowed to grow for 72 hours at 37° C. The amount of BrdU incorporation is determined by the Cell Proliferation ELISA BrdU colorimetric kit (Boehringer Mannheim).

Row | Substance | induction of SEAP in positive control wells (Jurkat T-cells) | induction of SEAP in positive control wells (U937 cells) | STATS (STATS) | GAS or ISRE (GAS or ISRE) | band of tyrosine-phosphorylated protein in cell extracts (M1 cells [1]) | inhibition of M1 cell proliferation with respect to the negative control (M1 cells [2])
1 | interferon gamma: positive control known to activate Jurkat T cells and U937 cells [reference compound] | Over 30 fold | Over 30 fold | 1 | GAS | – | –
2 | LIF: leukemia inhibitory factor, IL-6 family cytokine used as positive control for CLC [reference compound] | – | – | 1,3 | – | produced a band of phosphorylated protein | 4.8 fold

Reference: patent US20030087395A1, “Cardiotrophin-like cytokine” (Human Genome Sciences, Inc., priority 1997, published 2003)
